The source of these data is patent publication US20200190101A1, “Composition Containing Novel Glutamic Acid Derivative And Block Copolymer, And Use Thereof” (Nippon Kayaku Kabushiki Kaisha, priority 2015, published 2020).

Data set [1] can be described thus: Phosphate buffered physiological saline (PBS) solution stability test. Type of data set: physicochemical. The settings on record: PBS, 37° C., after 6.5 hours, HPLC. The method, then: 0.148 mL of the doxorubicin-bonded glutamic acid derivative PBS solution was dissolved in 0.148 mL of a PBS solution, and the solution was allowed to react at 37° C.
PBS (0.100 mL) was added to the EHC-bonded glutamic acid derivative solution (0.100 mL), and the mixture was allowed to react at 37° C. The reaction liquid was analyzed by HPLC, and thereby the residual ratio of the EHC-bonded glutamic acid derivative was determined.
PBS (0.117 mL) was added to the camptothecin-bonded glutamic acid derivative solution (0.117 mL), and the mixture was allowed to react at 37° C. The reaction liquid was analyzed by HPLC, and thereby the residual ratio of the glutamic acid derivative was determined.
The reaction liquid was analyzed by HPLC, and thereby the residual ratio of the EHC-bonded glutamic acid derivative was determined.

The nature of data set [2]: Test on pharmacokinetics of Synthesis Example 1 (tissue concentrations, OS-RC-2 tumor-bearing mice). Particulars: for Unchanged drug concentration: value after 5 minutes, 5 mg/kg in terms of doxorubicin i.v. Type of data set: in vivo, SCID mice. The method, then: Human renal cell cancer OS-RC-2 tumors that had been subcutaneously subcultured in SCID mice were produced into blocks that measured about 2 mm on each side, and the blocks were subcutaneously transplanted into SCID mice using a trocar.
At time points of 5 minutes, 3 hours, and 24 hours after the administration, various tissues such as blood plasma, heart, liver, bone marrow, and tumor were collected under ether anesthesia.

Turning to `COc1cccc2c1C(=O)c1c(O)c3c(c(O)c1C2=O)C[C@@](O)(C(=O)CO)CC3OC1CC(NC(=O)OCc2ccc(NC(=O)CCC(N)C(=O)O)cc2)C(O)C(C)O1` (stereo partly drawn) [Synthesis Example 1, (((4-((S)-4-amino-4-carboxybutanamide)benzyl)oxy)carbonyl)doxorubicin], in data set [1], the “Stability in PBS solution (release of doxorubicin)” value is “did not release doxorubicin in a PBS solution and was chemically stable”. Besides, the Unchanged drug concentration is on record as 9.36 μg/mL or g in data set [2] (Blood plasma); 0.336 μg/mL or g in data set [2] (Bone marrow); 1.63 μg/mL or g in data set [2] (Heart); 60.6 μg/mL or g in data set [2] (Liver); 0.192 μg/mL or g in data set [2] (Tumor). The “Concentration of doxorubicin produced, compared to doxorubicin hydrochloride” value is on record as “low” in data set [2] (blood plasma, liver, bone marrow, and heart (GGT expressed at a low level)); “high” in data set [2] (tumor (GGT expressed at a high level)).
